Common to all, as to assay type: cell-based
Holding throughout (design): key: +: active; -: inactive
Holding throughout (conditions): agar plates, 1 to 100 milligrams/liter

The test system of one assay is Streptococcus Sp. Briefly: standard plate dilution method, Streptococcus sp. On the procedure: (§1) The culture medium employed permits susceptibility testing of fastidious microorganisms towards antibiotics, sulfonamides and other chemotherapeutic agents. Tryptone soy agar (oxoid) of the following composition is the culture medium. In the test procedure, the amount of a compound required to give complete inhibition or no inhibition of the microbial growth on the agar plates was determined. The compound selected for evaluation is added to the agar medium to give concentrations of one, ten and one hundred milligrams per liter. A series of plates with these concentrations is prepared. Plates containing agar alone are included as controls. Ten percent horse serum is added to one series of such plates. Aliquots of broth culture of each of nine species of microorganisms are innoculated onto the agar plates containing the various compound concentrations and onto the control plates. The plates are incubated at 37° C. in a 10 percent carbon dioxide atmosphere for 18 to 25 hours. The microbial growth on each plate is read visually, and minimal inhibitory concentrations are recorded.

The test system of another assay is Herellea vaginicola. Briefly: standard plate dilution method, Herellea vaginicola. The method, then: as §1
Another assay has as its system Mima polymorpha. Briefly: standard plate dilution method, Mima polymorpha. The method, then: as §1
The test system of the next assay is Bacillus Subtilus. Briefly: standard plate dilution method, Bacillus subtilus. On the procedure:
as §1

A further assay relates to Escherichia coli. Briefly: standard plate dilution method, Escherichia coli. The method, then:
as §1

The next assay deals with Pseudmonas aeruginosa. Briefly: standard plate dilution method, Pseudomonas aeruginosa. The method, then: as §1
In a further assay the test system is Staphylococcus aureus. Briefly: standard plate dilution method, Staphylococcus aureus. The method, then:
as §1

SMILES strings stand for the structures.

With `CCOC(=O)c1cn2c3c(c(C)c(Cl)cc3c1=O)OCC2C` (stereo not shown) [Example 34 (ester)], the “Microorganism SS (growth inhibition)” value with Streptococcus Sp is reported as “+”. Also, in the assay on Herellea vaginicola, the “Microorganism HV (growth inhibition)” value is given as “+”. Besides, in the assay with Mima polymorpha, the “Microorganism MP (growth inhibition)” value is on record as “+”. Besides, the “Microorganism BS (growth inhibition)” value with Bacillus Subtilus is recorded as “+”. For the same molecule, the “Microorganism EC (growth inhibition)” value in the assay with Escherichia coli was “+”. Further, the “Microorganism PA (growth inhibition)” value in the assay with Pseudmonas aeruginosa is “+”. In the assay with Staphylococcus aureus, the “Microorganism SA (growth inhibition)” value is on record as “+”.

As for `Cc1cc(Cl)c2c3c1c(=O)c(C(=O)O)cn3C(C)CO2` (stereo not shown) [Example 37 (acid)], the “Microorganism SS (growth inhibition)” value with Streptococcus Sp is on record as “+”. Also, the “Microorganism HV (growth inhibition)” value in the assay on Herellea vaginicola is “+”. Besides, the “Microorganism MP (growth inhibition)” value in the assay on Mima polymorpha was “+”. Further, in the assay with Bacillus Subtilus, the “Microorganism BS (growth inhibition)” value was “+”. The “Microorganism EC (growth inhibition)” value in the assay with Escherichia coli was “+”. The “Microorganism PA (growth inhibition)” value in the assay on Pseudmonas aeruginosa was “+”. The “Microorganism SA (growth inhibition)” value with Staphylococcus aureus is “+”.

With `CCOC(=O)c1cn2c3c(c(Cl)cc(C)c3c1=O)OCC2C` (stereo not shown) [Example 37 (ester)], in the assay with Streptococcus Sp, the “Microorganism SS (growth inhibition)” value is on record as “-”. Also, the “Microorganism HV (growth inhibition)” value in the assay on Herellea vaginicola was “-”. Moreover, the “Microorganism MP (growth inhibition)” value in the assay on Mima polymorpha is “-”. Moreover, the “Microorganism BS (growth inhibition)” value in the assay on Bacillus Subtilus was “+”. Also, in the assay on Escherichia coli, the “Microorganism EC (growth inhibition)” value is listed as “-”. Besides, in the assay with Pseudmonas aeruginosa, the “Microorganism PA (growth inhibition)” value was “-”. For the same molecule, the “Microorganism SA (growth inhibition)” value with Staphylococcus aureus is listed as “-”.

Consider `CC1COc2c(Cl)cc([N+](=O)[O-])c3c(=O)c(C(=O)O)cn1c23` (stereo not shown) [Example 38 (acid)], for which the “Microorganism SS (growth inhibition)” value in the assay on Streptococcus Sp was “-”. Further, in the assay with Herellea vaginicola, the “Microorganism HV (growth inhibition)” value is “+”. The “Microorganism MP (growth inhibition)” value in the assay on Mima polymorpha is given as “-”. For the same molecule, the “Microorganism BS (growth inhibition)” value in the assay on Bacillus Subtilus was “+”. Moreover, the “Microorganism EC (growth inhibition)” value in the assay on Escherichia coli is recorded as “+”. The “Microorganism PA (growth inhibition)” value in the assay with Pseudmonas aeruginosa was “-”. For the same molecule, the “Microorganism SA (growth inhibition)” value with Staphylococcus aureus is “+”.

With `Cc1ccc2c(=O)c(C(=O)O)cn3c2c1OCC3C` (stereo not shown) [Example 39 (acid)], the “Microorganism SS (growth inhibition)” value in the assay on Streptococcus Sp is listed as “+”. The “Microorganism HV (growth inhibition)” value in the assay on Herellea vaginicola is “+”. Besides, in the assay on Mima polymorpha, the “Microorganism MP (growth inhibition)” value is recorded as “+”. The “Microorganism BS (growth inhibition)” value in the assay with Bacillus Subtilus was “+”. Also, in the assay with Escherichia coli, the “Microorganism EC (growth inhibition)” value is “+”. Besides, in the assay on Pseudmonas aeruginosa, the “Microorganism PA (growth inhibition)” value is on record as “+”. Besides, the “Microorganism SA (growth inhibition)” value in the assay on Staphylococcus aureus is listed as “-”.

As to `CCOC(=O)c1cn2c3c(c(C)ccc3c1=O)OCC2C` (stereo not shown) [Example 39 (ester)], the “Microorganism SS (growth inhibition)” value with Streptococcus Sp is “+”. Besides, in the assay on Herellea vaginicola, the “Microorganism HV (growth inhibition)” value is reported as “-”. Also, in the assay on Mima polymorpha, the “Microorganism MP (growth inhibition)” value is reported as “-”. Further, the “Microorganism BS (growth inhibition)” value in the assay with Bacillus Subtilus is listed as “-”. The “Microorganism EC (growth inhibition)” value in the assay on Escherichia coli is reported as “+”. In the assay on Pseudmonas aeruginosa, the “Microorganism PA (growth inhibition)” value is reported as “+”. For the same molecule, in the assay on Staphylococcus aureus, the “Microorganism SA (growth inhibition)” value is on record as “-”.

Regarding `Cc1cc2c3c(c1C)c(=O)c(C(=O)O)cn3C(C)CO2` (stereo not shown) [Example 40 (acid)], the “Microorganism SS (growth inhibition)” value in the assay on Streptococcus Sp was “+”. Further, the “Microorganism HV (growth inhibition)” value in the assay on Herellea vaginicola was “+”. Further, in the assay with Mima polymorpha, the “Microorganism MP (growth inhibition)” value was “+”. In addition, in the assay with Bacillus Subtilus, the “Microorganism BS (growth inhibition)” value is “+”. Moreover, in the assay with Escherichia coli, the “Microorganism EC (growth inhibition)” value is “+”. Besides, the “Microorganism PA (growth inhibition)” value in the assay with Pseudmonas aeruginosa is on record as “+”. The “Microorganism SA (growth inhibition)” value in the assay on Staphylococcus aureus is “+”.

Turning to `Cc1cc(Cl)c2c(=O)c(C(=O)O)cn3c2c1OCC3C` (stereo not shown) [Example 41 (acid)], the “Microorganism SS (growth inhibition)” value in the assay with Streptococcus Sp is reported as “-”. Also, the “Microorganism HV (growth inhibition)” value in the assay with Herellea vaginicola is on record as “+”. Also, in the assay on Mima polymorpha, the “Microorganism MP (growth inhibition)” value is “-”. In the assay with Bacillus Subtilus, the “Microorganism BS (growth inhibition)” value is “+”. In addition, the “Microorganism EC (growth inhibition)” value in the assay with Escherichia coli is “+”. Also, the “Microorganism PA (growth inhibition)” value in the assay with Pseudmonas aeruginosa is listed as “-”. Moreover, in the assay with Staphylococcus aureus, the “Microorganism SA (growth inhibition)” value is “+”.

Turning to `CCOC(=O)c1cn2c3c(c(C)cc(Cl)c3c1=O)OCC2C` (stereo not shown) [Example 41 (ester)], in the assay with Streptococcus Sp, the “Microorganism SS (growth inhibition)” value was “-”. For the same molecule, the “Microorganism HV (growth inhibition)” value in the assay with Herellea vaginicola is “+”. The “Microorganism MP (growth inhibition)” value in the assay with Mima polymorpha is recorded as “-”. Further, in the assay on Bacillus Subtilus, the “Microorganism BS (growth inhibition)” value is given as “+”. The “Microorganism EC (growth inhibition)” value in the assay with Escherichia coli is given as “+”. In addition, the “Microorganism PA (growth inhibition)” value in the assay on Pseudmonas aeruginosa was “-”. The “Microorganism SA (growth inhibition)” value with Staphylococcus aureus is “+”.

With `Cc1cc(C)c2c(=O)c(C(=O)O)cn3c2c1OCC3C` (stereo not shown) [Example 42 (acid)], the “Microorganism SS (growth inhibition)” value in the assay on Streptococcus Sp was “+”. In the assay on Herellea vaginicola, the “Microorganism HV (growth inhibition)” value was “+”. For the same molecule, the “Microorganism MP (growth inhibition)” value in the assay with Mima polymorpha is listed as “+”. Further, the “Microorganism BS (growth inhibition)” value in the assay on Bacillus Subtilus was “+”. Also, the “Microorganism EC (growth inhibition)” value in the assay with Escherichia coli was “+”. In addition, the “Microorganism PA (growth inhibition)” value with Pseudmonas aeruginosa was “+”. In the assay on Staphylococcus aureus, the “Microorganism SA (growth inhibition)” value was “+”.

With `CCOC(=O)c1cn2c3c(c(C)cc(C)c3c1=O)OCC2C` (stereo not shown) [Example 42 (ester)], the “Microorganism SS (growth inhibition)” value in the assay with Streptococcus Sp is given as “-”. Besides, the “Microorganism HV (growth inhibition)” value with Herellea vaginicola was “-”. Further, the “Microorganism MP (growth inhibition)” value in the assay with Mima polymorpha was “-”. In addition, the “Microorganism BS (growth inhibition)” value in the assay with Bacillus Subtilus is reported as “+”. In the assay on Escherichia coli, the “Microorganism EC (growth inhibition)” value is on record as “-”. In the assay on Pseudmonas aeruginosa, the “Microorganism PA (growth inhibition)” value is recorded as “-”. Also, the “Microorganism SA (growth inhibition)” value with Staphylococcus aureus is reported as “-”.

For the molecule `O=C(O)c1cn2c3c(cc(F)cc3c1=O)OCC2` [Example 43 (acid)], the “Microorganism SS (growth inhibition)” value in the assay with Streptococcus Sp was “+”. Besides, the “Microorganism HV (growth inhibition)” value in the assay on Herellea vaginicola was “+”. For the same molecule, the “Microorganism MP (growth inhibition)” value with Mima polymorpha is listed as “-”. In addition, the “Microorganism BS (growth inhibition)” value with Bacillus Subtilus is reported as “+”. Besides, in the assay on Escherichia coli, the “Microorganism EC (growth inhibition)” value is “+”. The “Microorganism PA (growth inhibition)” value in the assay with Pseudmonas aeruginosa is on record as “-”. The “Microorganism SA (growth inhibition)” value in the assay with Staphylococcus aureus is “+”.

`CC1COc2ccc([N+](=O)[O-])c3c(=O)c(C(=O)O)cn1c23` (stereo not shown) [Example 44, 2,3-dihydro-3-methyl-8-nitro-7-oxo-7H-pyrido[1,2,3-de]-1,4-benzoxazine-6-carboxylic acid]: the “Microorganism SS (growth inhibition)” value in the assay with Streptococcus Sp was “-”. For the same molecule, in the assay with Herellea vaginicola, the “Microorganism HV (growth inhibition)” value was “+”. Besides, the “Microorganism MP (growth inhibition)” value with Mima polymorpha is reported as “-”. In addition, the “Microorganism BS (growth inhibition)” value in the assay on Bacillus Subtilus was “+”. The “Microorganism EC (growth inhibition)” value in the assay with Escherichia coli is “+”. Moreover, the “Microorganism PA (growth inhibition)” value in the assay with Pseudmonas aeruginosa was “-”. Also, the “Microorganism SA (growth inhibition)” value in the assay on Staphylococcus aureus is “+”.
